Assay results: patent publication US8653110B2, “Active compound combination comprising azadirachtin and a substituted enaminocarbonyl compound” (Bayer CropScience AG, priority 2010, dated 2014)

Assays:
Type in all cases: in vivo
[1] = system: Trialeurodes vaporariorum; experiment: Whiteflies on tomatoes (Example 5)
Protocol: Example 5 describes the effect of the combination according to the invention against whiteflies (Trialeurodes vaporariorum) on tomatoes (Lycopersicon esculentum). The test was carried out under GEP according to EPPO guideline PP 1/36(2) with 3 repetitions of in each case 4 plants. At the start of the infection, the plants were treated as follows: • 1. untreated • 2. compound (I-1) as SL 200 (compound according to formula (I-1), 17% strength), 50 g of active compound/ha • 3. azadirachtin 30 g of active compound/ha, NeemAzal® • 4. azadirachtin 15 g of active compound/ha, NeemAzal® • 5. azadirachtin 5 g of active compound/ha, NeemAzal® • 6. compound (I-1) as SL 200+azadirachtin, 50+30 g of active compound/ha • 7. compound (I-1) as SL 200+azadirachtin, 50+15 g of active compound/ha • 8. compound (I-1) as SL 200+azadirachtin, 50+5 g of active compound/ha • 9. positive control imidacloprid 100 g of active compound/ha
The spray solution was prepared by mixing commercial formulations and using water to adjust to the concentration mentioned. The application rate was 1000 l/ha. 2 applications were carried out at intervals of 14 days. The number of adult flies and the number of larvae were scored on days 2 to 21 after the first application. What is shown is the effect of the products, which becomes evident in a reduction of the number of insects or larvae compared to the untreated control. Imidacloprid was also tested, as positive control.

[2] = system: Phyllotreta nigripes; experiment: Turnip flea beetle on cabbage (Example 10); details: (I-1) 150, azadirachtin 30, (I-1)+azadirachtin 150+30, imidacloprid 100 g/ha
Protocol: Example 10 describes the effect of the combination according to the invention on caterpillars of the turnip flea beetle Phyllotreta nigripes on cabbage. The test was carried out according to EPPO guidelines PP 1/210(1), PP 1/152 (2), PP 1/181 (3) and PP 1/135 with 4 repetitions of in each case 10 plants. The plants were treated as follows: • 1. untreated • 2. compound (I-1) as SL 200 (compound according to formula (I-1), 17% strength), 150 g of active compound/ha • 3. azadirachtin 30 g of active compound/ha, NeemAzal® • 4. compound (I-1) as SL 200+azadirachtin, 150+30 g of active compound/ha • 5. positive control imidacloprid 100 g of active compound/ha
The spray solution was prepared by mixing commercial formulations and using water to adjust to the concentration mentioned. The application rate was 1000 l/ha. 2 applications were carried out at intervals of 14 days. The number of live caterpillars on days 7 to 32 after the first application was scored. What is shown is the effect of the products, which becomes evident in a reduction of the number of caterpillars compared to the untreated control.

[3] = system: Tetranychus urticae; experiment: Greenhouse red spider mite on roses (Example 7)
Protocol: Example 7 describes the effect of the combination according to the invention on the greenhouse red spider mite (Tetranychus urticae) on roses. The test was carried out in a greenhouse under GEP according to EPPO guideline PP 1/168(2) with 4 repetitions of in each case 4 plants. At the start of the infection, the plants were treated as follows: • 1. untreated • 2. compound (I-1) as SL 200 (compound according to formula (I-1), 17% strength), 50 g of active compound/ha • 3. azadirachtin 30 g of active compound/ha, NeemAzal® • 4. azadirachtin 5 g of active compound/ha, NeemAzal® • 5. compound (I-1) as SL 200+azadirachtin, 50+30 g of active compound/ha • 6. compound (I-1) as SL 200+azadirachtin, 50+5 g of active compound/ha • 7. positive control imidacloprid 100 g of active compound/ha
The spray solution was prepared by mixing commercial formulations and using water to adjust to the concentration mentioned. The application rate was 1000 l/ha. 2 applications were carried out at intervals of 14 days. The number of spider mites on days 2 to 32 after the first application was scored. What is shown is the effect of the products, which becomes evident in a reduction of the number of spider mites compared to the untreated control.

[4] = system: Spodoptera frugiperda; experiment: Fall armyworm caterpillars on maize, feeding damage (Example 8); details: reduction of feeding damage
[5] = Day 2, (I-1) 50, azadirachtin 30, (I-1)+azadirachtin 50+30, imidacloprid 100 g/ha
[6] = Day 7, (I-1) 50, azadirachtin 30, (I-1)+azadirachtin 50+30, imidacloprid 100 g/ha
[7] = Day 14, (I-1) 50, azadirachtin 30, (I-1)+azadirachtin 50+30, imidacloprid 100 g/ha
[8] = Day 21, (I-1) 50, azadirachtin 30, (I-1)+azadirachtin 50+30, imidacloprid 100 g/ha
[9] = Days 28-32, (I-1) 50, azadirachtin 30, (I-1)+azadirachtin 50+30, imidacloprid 100 g/ha
[10] = Days 35-42, (I-1) 50, azadirachtin 30, (I-1)+azadirachtin 50+30, imidacloprid 100 g/ha
[11] = Day 2, azadirachtin 5, (I-1)+azadirachtin 50+5 g/ha
[12] = Day 2, azadirachtin 15, (I-1)+azadirachtin 50+15 g/ha
[13] = Day 7, azadirachtin 5, (I-1)+azadirachtin 50+5 g/ha
[14] = Day 7, azadirachtin 15, (I-1)+azadirachtin 50+15 g/ha
[15] = Day 14, azadirachtin 5, (I-1)+azadirachtin 50+5 g/ha
[16] = Day 14, azadirachtin 15, (I-1)+azadirachtin 50+15 g/ha
[17] = Day 21, azadirachtin 5, (I-1)+azadirachtin 50+5 g/ha
[18] = Day 21, azadirachtin 15, (I-1)+azadirachtin 50+15 g/ha
[19] = Days 28-32, azadirachtin 5, (I-1)+azadirachtin 50+5 g/ha

## O=C1C=C(N(Cc2ccc(Cl)nc2)CC(F)F)CO1 [(I-1), 4-{[(6-chloropyrid-3-yl)methyl](2,2-difluoroethyl)amino}furan-2(5H)-one]
[1]; [5]
  Activity against adults [%]: 73%
  Activity against larvae [%]: 0%
[1]; [6]
  Activity against adults [%]: 75%
  Activity against larvae [%]: 18%
[1]; [7]
  Activity against adults [%]: 22%
  Activity against larvae [%]: 0%
[1]; [8]
  Activity against adults [%]: 57%
  Activity against larvae [%]: 14%
[2]; Day 7
  Activity against Phyllotreta nigripes [%]: 0%
[2]; Days 14-16
  Activity against Phyllotreta nigripes [%]: 9.5%
[2]; Days 21-25
  Activity against Phyllotreta nigripes [%]: 7.4%
[2]; Days 28-32
  Activity against Phyllotreta nigripes [%]: 2.8%
[3]; [5]
  Activity against Tetranychus urticae [%]: 28%
[3]; [6]
  Activity against Tetranychus urticae [%]: 15%
[3]; [7]
  Activity against Tetranychus urticae [%]: 43%
[3]; [8]
  Activity against Tetranychus urticae [%]: 12%
[3]; [9]
  Activity against Tetranychus urticae [%]: 15%
[4]; [6]
  Activity against Spodoptera frugiperda [%]: 0%
[4]; [7]
  Activity against Spodoptera frugiperda [%]: 0%
[4]; [8]
  Activity against Spodoptera frugiperda [%]: 0%
[4]; [9]
  Activity against Spodoptera frugiperda [%]: 0%
[4]; [10]
  Activity against Spodoptera frugiperda [%]: 0%

## C/C=C(\C)C(=O)O[C@H]1C[C@@H](OC(C)=O)[C@@]2(C(=O)OC)CO[C@H]3[C@@H](O)[C@@](C)([C@]45O[C@@]4(C)[C@H]4C[C@@H]5O[C@@H]5OC=C[C@@]54O)[C@H]4[C@]1(CO[C@]4(O)C(=O)OC)[C@@H]32 [azadirachtin]
[1]; [5]
  Activity against adults [%]: 45%
  Activity against larvae [%]: 0%
[1]; [11]
  Activity against adults [%]: 23%
  Activity against larvae [%]: 0%
[1]; [12]
  Activity against adults [%]: 47%
  Activity against larvae [%]: 0%
[1]; [6]
  Activity against adults [%]: 47%
  Activity against larvae [%]: 2%
[1]; [13]
  Activity against adults [%]: 7%
  Activity against larvae [%]: 24%
[1]; [14]
  Activity against adults [%]: 54%
  Activity against larvae [%]: 13%
[1]; [7]
  Activity against adults [%]: 32%
  Activity against larvae [%]: 13%
[1]; [15]
  Activity against adults [%]: 0%
  Activity against larvae [%]: 12%
[1]; [16]
  Activity against adults [%]: 49%
  Activity against larvae [%]: 37%
[1]; [8]
  Activity against adults [%]: 56%
  Activity against larvae [%]: 0%
[1]; [17]
  Activity against adults [%]: 16%
  Activity against larvae [%]: 0%
[1]; [18]
  Activity against adults [%]: 80%
  Activity against larvae [%]: 0%
[2]; Day 7
  Activity against Phyllotreta nigripes [%]: 29%
[2]; Days 14-16
  Activity against Phyllotreta nigripes [%]: 51%
[2]; Days 21-25
  Activity against Phyllotreta nigripes [%]: 35%
[2]; Days 28-32
  Activity against Phyllotreta nigripes [%]: 34%
[3]; [5]
  Activity against Tetranychus urticae [%]: 21%
[3]; [11]
  Activity against Tetranychus urticae [%]: 30%
[3]; [6]
  Activity against Tetranychus urticae [%]: 16%
[3]; [13]
  Activity against Tetranychus urticae [%]: 0%
[3]; [7]
  Activity against Tetranychus urticae [%]: 20%
[3]; [15]
  Activity against Tetranychus urticae [%]: 10%
[3]; [8]
  Activity against Tetranychus urticae [%]: 7%
[3]; [17]
  Activity against Tetranychus urticae [%]: 19%
[3]; [9]
  Activity against Tetranychus urticae [%]: 0%
[3]; [19]
  Activity against Tetranychus urticae [%]: 6%
[4]; [6]
  Activity against Spodoptera frugiperda [%]: 0%
[4]; [13]
  Activity against Spodoptera frugiperda [%]: 0%
[4]; [7]
  Activity against Spodoptera frugiperda [%]: 7%
[4]; [15]
  Activity against Spodoptera frugiperda [%]: 29%
[4]; [8]
  Activity against Spodoptera frugiperda [%]: 53%
[4]; [17]
  Activity against Spodoptera frugiperda [%]: 61%
[4]; [9]
  Activity against Spodoptera frugiperda [%]: 84%
[4]; [19]
  Activity against Spodoptera frugiperda [%]: 77%
[4]; [10]
  Activity against Spodoptera frugiperda [%]: 80%
[4]; Days 35-42, azadirachtin 5, (I-1)+azadirachtin 50+5 g/ha
  Activity against Spodoptera frugiperda [%]: 81%

## O=[N+]([O-])NC1=NCCN1Cc1ccc(Cl)nc1 [imidacloprid]
[1]; [5]
  Activity against adults [%]: 51%
  Activity against larvae [%]: 0%
[1]; [6]
  Activity against adults [%]: 89%
  Activity against larvae [%]: 60%
[1]; [7]
  Activity against adults [%]: 68%
  Activity against larvae [%]: 50%
[1]; [8]
  Activity against adults [%]: 65%
  Activity against larvae [%]: 52%
[2]; Day 7
  Activity against Phyllotreta nigripes [%]: 52%
[2]; Days 14-16
  Activity against Phyllotreta nigripes [%]: 51%
[2]; Days 21-25
  Activity against Phyllotreta nigripes [%]: 49%
[2]; Days 28-32
  Activity against Phyllotreta nigripes [%]: 43%
[3]; [5]
  Activity against Tetranychus urticae [%]: 20%
[3]; [6]
  Activity against Tetranychus urticae [%]: 16%
[3]; [7]
  Activity against Tetranychus urticae [%]: 11%
[3]; [8]
  Activity against Tetranychus urticae [%]: 27%
[3]; [9]
  Activity against Tetranychus urticae [%]: 46%
[4]; [6]
  Activity against Spodoptera frugiperda [%]: 24%
[4]; [7]
  Activity against Spodoptera frugiperda [%]: 57%
[4]; [8]
  Activity against Spodoptera frugiperda [%]: 14%
[4]; [9]
  Activity against Spodoptera frugiperda [%]: 12%
[4]; [10]
  Activity against Spodoptera frugiperda [%]: 10%
